ChEMBL document CHEMBL4680214, “Fluorinated derivatives of 2-phenyl-3-hydroxy-4(1H)-quinolinone as tubulin polymerization inhibitors” (Eur J Med Chem, 2020)
The source made the active and inactive calls. The rule behind the calls is not given here.

Columns and labels:
CCRF-CEM [1] = assay: Cell cycle arrest in human CCRF-CEM cells assessed as accumulation at sub-G1 phase at 5 times IC50 measured after 24 hrs by propidium iodide staining based flow cytometry (reference value: 2%); type: functional
CCRF-CEM [2] = assay: Cell cycle arrest in human CCRF-CEM cells assessed as increase in accumulation at G2/M phase at 2 times IC50 measured after 6 to 12 hrs by propidium iodide staining based flow cytometry; type: functional; settings: time 6-12 hrs
CCRF-CEM [3] = assay: Cell cycle arrest in human CCRF-CEM cells assessed as accumulation at G2/M phase at 5 times IC50 measured after 24 hrs by propidium iodide staining based flow cytometry (reference value: 22.6%); type: functional
CCRF-CEM [4] = assay: Cell cycle arrest in human CCRF-CEM cells assessed as increase in cyclin B1 expression at 2 times IC50 measured after 6 to 12 hrs by Western blot analysis; type: functional, cell-based; settings: time 6-12 hrs
CCRF-CEM [5] = assay: Cell cycle arrest in human CCRF-CEM cells assessed as increase in Bax expression at 2 times IC50 measured after 24 hrs by Western blot analysis; type: functional, cell-based
CCRF-CEM [6] = assay: Cell cycle arrest in human CCRF-CEM cells assessed as polyploid cell population at 2 times IC50 measured after 6 hrs by propidium iodide staining based flow cytometry (reference value: 11.3%); type: functional
CCRF-CEM [7] = assay: Cell cycle arrest in human CCRF-CEM cells assessed as polyploid cell population at 2 times IC50 measured after 12 hrs by propidium iodide staining based flow cytometry (reference value: 11.3%); type: functional
CCRF-CEM [8] = assay: Cell cycle arrest in human CCRF-CEM cells assessed as phosphorylation of histone H3 at Ser10 at IC50 measured after 24 hrs by propidium iodide staining based flow cytometry (reference value: 2.0%); type: functional
HCT-116 [9] = assay: Cell cycle arrest in human HCT-116 cells assessed as BrdU incorporation at 5 times IC50 measured after 24 hrs by propidium iodide/immunostaining based flow cytometry (reference value: 48.6%); type: functional
HCT-116 [10] = assay: Cell cycle arrest in human HCT-116 cells assessed as BrU incorporation at IC50 measured after 24 hrs by propidium iodide/immunostaining based flow cytometry (reference value: 54.0%); type: functional
CCRF-CEM [11] = assay: Cell cycle arrest in human CCRF-CEM cells assessed as BrU incorporation at IC50 measured after 24 hrs by propidium iodide/immunostaining based flow cytometry (reference value: 52.2%); type: functional
Tubulin (Homo sapiens) = Tubulin (Homo sapiens) (UniProt P68371+Q9H4B7+P0DPH7+P68366+Q13509+Q71U36+P04350+Q3ZCM7+P07437+P68363+Q9BQE3+Q6PEY2+Q13885+Q9BVA1+Q9BUF5); assay: Induction of microtubule depolymerization in human HCT-116 cells assessed as appearance of abnormal mitotic spindle morphology at 5 times IC50 after 24 hrs by DAPI staining based immunofluorescence analysis; type: cell-based
CCRF-CEM [12] = assay: Cell cycle arrest in human CCRF-CEM cells assessed as polyploid cell population at 2 times IC50 measured after 36 hrs by propidium iodide staining based flow cytometry (reference value: 11.3%); type: functional
CCRF-CEM [13] = assay: Cell cycle arrest in human CCRF-CEM cells assessed as BrdU incorporation at 5 times IC50 measured after 24 hrs by propidium iodide/immunostaining based flow cytometry (reference value: 60.0%); type: functional
HCT-116 [14] = assay: Cell cycle arrest in human HCT-116 cells assessed as accumulation at G0/G1 phase at 5 times IC50 measured after 24 hrs by propidium iodide staining based flow cytometry (reference value: 35.3%); type: functional
HCT-116 [15] = assay: Cell cycle arrest in human HCT-116 cells assessed as accumulation at sub-G1 phase at IC50 measured after 24 hrs by propidium iodide staining based flow cytometry (reference value: 1.6%); type: functional
CCRF-CEM [16] = assay: Cell cycle arrest in human CCRF-CEM cells assessed as accumulation at sub-G1 phase at IC50 measured after 24 hrs by propidium iodide staining based flow cytometry (reference value: 2%); type: functional
CCRF-CEM [17] = assay: Cell cycle arrest in human CCRF-CEM cells assessed as BrU incorporation at 5 times IC50 measured after 24 hrs by propidium iodide/immunostaining based flow cytometry (reference value: 52.2%); type: functional
HCT-116 [18] = assay: Cell cycle arrest in human HCT-116 cells assessed as phosphorylation of histone H3 at Ser10 at IC50 measured after 24 hrs by propidium iodide staining based flow cytometry (reference value: 3.4%); type: functional
HCT-116 [19] = assay: Cell cycle arrest in human HCT-116 cells assessed as accumulation at S phase at 5 times IC50 measured after 24 hrs by propidium iodide staining based flow cytometry (reference value: 37.7%); type: functional
CCRF-CEM [20] = assay: Cell cycle arrest in human CCRF-CEM cells assessed as accumulation at G0/G1 phase at 5 times IC50 measured after 24 hrs by propidium iodide staining based flow cytometry (reference value: 35.2%); type: functional
CCRF-CEM [21] = assay: Cell cycle arrest in human CCRF-CEM cells assessed as accumulation at G0/G1 phase at IC50 measured after 24 hrs by propidium iodide staining based flow cytometry (reference value: 35.2%); type: functional
A549 = assay: Cytotoxicity against human A549 cells incubated for 72 hrs by MTS assay; type: functional, cell-based; settings: A549, 72 h
Sus scrofa = species: Sus scrofa; assay: Inhibition of porcine brain tubulin polymerization at 10 umol/L measured at 60 secs interval for 30 mins by turbidometric method; settings: dose 10.0 µmol/L
HCT-116 [22] = assay: Cell cycle arrest in human HCT-116 cells assessed as BrU incorporation at 5 times IC50 measured after 24 hrs by propidium iodide/immunostaining based flow cytometry (reference value: 54.0%); type: functional
BJ = assay: Cytotoxicity against human BJ cells incubated for 72 hrs by MTS assay; type: cell-based
HCT-116 [23] = assay: Cell cycle arrest in human HCT-116 cells assessed as accumulation at G0/G1 phase at IC50 measured after 24 hrs by propidium iodide staining based flow cytometry (reference value: 35.3%); type: functional
HCT-116 [24] = assay: Cell cycle arrest in human HCT-116 cells assessed as accumulation at G2/M phase at IC50 measured after 24 hrs by propidium iodide staining based flow cytometry (reference value: 27.0%); type: functional
HCT-116 [25] = assay: Cell cycle arrest in human HCT-116 cells assessed as accumulation at G2/M phase at 5 times IC50 measured after 24 hrs by propidium iodide staining based flow cytometry (reference value: 27.0%); type: functional
K562 [26] = assay: Cytotoxicity against human paclitaxel-resistant K562 cells incubated for 72 hrs by MTS assay; type: functional, cell-based; settings: K562, 72 h
CCRF-CEM [27] = assay: Cell cycle arrest in human CCRF-CEM cells assessed as increase in phosphorylation of histone H3 at Ser10 at 2 times IC50 measured after 6 to 12 hrs by Western blot analysis; type: functional, cell-based; settings: time 6-12 hrs
CCRF-CEM [28] = assay: Cell cycle arrest in human CCRF-CEM cells assessed as decrease in Bcl2 expression at 2 times IC50 measured after 24 hrs by Western blot analysis; type: functional, cell-based
K562 [29] = assay: Cytotoxicity against human K562 cells incubated for 72 hrs by MTS assay; type: functional, cell-based; settings: K562, 72 h
HCT-116 [30] = assay: Cytotoxicity against human HCT-116 cells incubated for 72 hrs by MTS assay; type: functional, cell-based; settings: HCT-116, 72 h
HCT-116 [31] = assay: Cell cycle arrest in human HCT-116 cells assessed as phosphorylation of histone H3 at Ser10 at 5 times IC50 measured after 24 hrs by propidium iodide staining based flow cytometry (reference value: 3.4%); type: functional
HCT-116 [32] = assay: Cytotoxicity against p53-deficient human HCT-116 cells incubated for 72 hrs by MTS assay; type: functional, cell-based; settings: HCT-116, 72 h

## O=c1c(O)c(-c2ccccc2)[nH]c2cc(F)c(Sc3ccccc3)cc12
CCRF-CEM [1]
  Activity: 29.7%
CCRF-CEM [2]
  Activity: Active
CCRF-CEM [3]
  Activity: 20.2%
CCRF-CEM [4]
  Activity: Active
CCRF-CEM [5]
  Activity: Active
CCRF-CEM [6]
  Activity: 10.5%
CCRF-CEM [7]
  Activity: 12.4%
CCRF-CEM [8]
  Activity: 9.4%
HCT-116 [9]
  Activity: 41.6%
HCT-116 [10]
  Activity: 65.4%
CCRF-CEM [11]
  Activity: 67.4%
Tubulin (Homo sapiens)
  Activity: Active
CCRF-CEM [12]
  Activity: 20.8%
CCRF-CEM [13]
  Activity: 18.7%
HCT-116 [14]
  Activity: 2.7%
HCT-116 [15]
  Activity: 3.4%
CCRF-CEM [16]
  Activity: 5.8%
CCRF-CEM [17]
  Activity: 11.4%
HCT-116 [18]
  Activity: 6.2%
HCT-116 [19]
  Activity: 33.2%
CCRF-CEM [20]
  Activity: 58.2%
CCRF-CEM [21]
  Activity: 1.8%
A549
  IC50: 3600 nM
Sus scrofa
  inhibition: Active
HCT-116 [22]
  Activity: 63.9%
BJ
  IC50: > 50000 nM
HCT-116 [23]
  Activity: 33.3%
HCT-116 [24]
  Activity: 33.2%
HCT-116 [25]
  Activity: 64.1%
K562 [26]
  IC50: 2900 nM
CCRF-CEM [27]
  Activity: Active
CCRF-CEM [28]
  Activity: inactive
K562 [29]
  IC50: 1300 nM
HCT-116 [30]
  IC50: 1300 nM
HCT-116 [31]
  Activity: 15.5%
HCT-116 [32]
  IC50: 4000 nM
